Laboratory results from US5583115A, “Dialkyltiacumicin compounds” (Abbott Laboratories, priority 1995, dated 1996).
≈ marks a conversion by molar mass, not a printed value. Like-named read-outs stand apart in the source and are kept apart here.

Key:
Propionibacterium acnes = assay: MIC agar dilution, anaerobic bacteria; format: cell-based; settings: Cutibacterium acnes, 20 h
Fusobacterium nucleatum = assay: MIC agar dilution, anaerobic bacteria; format: cell-based; settings: Fusobacterium nucleatum, 20 h
P. anaerobius = assay: MIC agar dilution, anaerobic bacteria; format: cell-based; settings: Peptostreptococcus anaerobius, 20 h
B. disiens = assay: MIC agar dilution, anaerobic bacteria; format: cell-based; settings: Prevotella disiens, 20 h
C. ramosum = assay: MIC agar dilution, anaerobic bacteria; format: cell-based; settings: Thomasclavelia ramosa, 20 h
C. difficile = assay: MIC agar dilution, anaerobic bacteria; format: cell-based; settings: Clostridioides difficile, 20 h
Bacteriodes fragilis = assay: MIC agar dilution, anaerobic bacteria; format: cell-based; settings: 20 h
B. vulgatus = assay: MIC agar dilution, anaerobic bacteria; format: cell-based
P. species = assay: MIC agar dilution, anaerobic bacteria; format: cell-based; settings: 20 h; Culture # 1776; read-out: MIC
B. thetaiotaomicron = assay: MIC agar dilution, anaerobic bacteria; format: cell-based
B. bivius = assay: MIC agar dilution, anaerobic bacteria; format: cell-based; settings: Prevotella bivia, 20 h
Clostridium perfringens = assay: microbe, parasite or virus in culture; format: cell-based; settings: Clostridium perfringens, 20 h
[1] = test system: Peptostreptococcus asaccharolyticus; assay: MIC agar dilution, anaerobic bacteria; format: cell-based; settings: Peptoniphilus asaccharolyticus, 20 h
B. loescheii = assay: MIC agar dilution, anaerobic bacteria; format: cell-based; settings: Hoylesella loescheii, 20 h
P. magnus = assay: MIC agar dilution, anaerobic bacteria; format: cell-based; settings: Finegoldia magna, 20 h
Fusobacterium species = assay: MIC agar dilution, anaerobic bacteria; format: cell-based; settings: Fusobacterium, 20 h
Veillonella parvula = assay: MIC agar dilution, anaerobic bacteria; format: cell-based; settings: Veillonella parvula, 20 h
Clostridium difficile = assay: In vivo hamster model of pseudomembranous Clostridium difficile induced colitis; settings: for % Mortality: days 8-14, expiring by day 20
Protocol: (Suppression of normal gastrointestinal bacteria by the ciprofloxacin permitted the drug-resistant C. difficile to predominate.) Five additional hamsters were segregated as a noninfected control group.
The infected animals were divided into three groups comprising (a) 10 untreated animals; (b) 15 vancomycin-treated animals (5 each at 20, 10 and 1 mg/kg/day orally on days 8-14); and (c) 10 animals treated with the compound of Example 2 (5 each at 10 and 1 mg/kg/day on days 8-14). The subject animals were monitored for (a) body weight (infected hamsters lose significant body mass), and (b) mortality (percent expiring by day 20).

[2] = test system: Acinetobacter calcoaceticus; assay: MIC agar dilution, aerobic and facultative bacteria; settings: Acinetobacter calcoaceticus, 20 h
Klebsiella pneumoniae = assay: as above; settings: Klebsiella pneumoniae, 20 h
Staphylococcus aureus = assay: as above; settings: Staphylococcus aureus, 20 h
P. cepacia = assay: as above; settings: Burkholderia cepacia, 20 h
Enterobacter aerogenes = assay: as above; settings: Klebsiella aerogenes, 20 h
Pseudomonas aeruginosa = assay: as above
Micrococcus luteus = assay: as above; settings: Micrococcus luteus, 20 h
S. epidermidis = assay: as above; settings: Staphylococcus epidermidis, 20 h
E. coli = assay: as above; format: cell-based; settings: Escherichia coli, 20 h, read-out: MIC
Streptococcus agalactiae = assay: as above; settings: Streptococcus agalactiae, 20 h
S. pyogenes = assay: as above; settings: Streptococcus pyogenes, 20 h
Providencia stuartii = assay: as above; settings: Providencia stuartii, 20 h
Enterococcus faecium = assay: as above; settings: Enterococcus faecium, 20 h
Streptococcus bovis = assay: as above; settings: Streptococcus equinus, 20 h
[3] = Bacteroides thetaiotaomicron, 20 h, Culture # 1764, read-out: MIC

CCC[C@@H]1C[C@@H](C(=O)N[C@@H]([C@H]2O[C@H](SC)[C@H](O)[C@@H](O)[C@H]2O)[C@H](C)Cl)N(C)C1 [Clindamycin]
MIC (Propionibacterium acnes; Culture # 1775, read-out: MIC): 0.06 µg/mL (≈ 0.141 µM) | MIC (Fusobacterium nucleatum; Culture # 2478, read-out: MIC): 0.12 µg/mL (≈ 0.282 µM) | MIC (P. anaerobius; Culture # 1780, read-out: MIC): 0.06 µg/mL (≈ 0.141 µM) | MIC (B. disiens; Culture # 1763, read-out: MIC): 0.015 µg/mL (≈ 0.0353 µM) | MIC (C. ramosum; Culture # 2482, read-out: MIC): 1 µg/mL (≈ 2.35 µM) | MIC (C. difficile; Culture # 1496, read-out: MIC): > 32 µg/mL | MIC (C. difficile; Culture # 1497, read-out: MIC): > 32 µg/mL | MIC (C. difficile; Culture # 1774, read-out: MIC): 0.5 µg/mL (≈ 1.18 µM) | MIC (C. difficile; Culture # 2025, read-out: MIC): 4 µg/mL (≈ 9.41 µM) | MIC (C. difficile; Culture # 2480, read-out: MIC): 4 µg/mL (≈ 9.41 µM) | MIC (C. difficile; Culture # 2528, read-out: MIC): 4 µg/mL (≈ 9.41 µM) | MIC (C. difficile; Culture # 2529, read-out: MIC): 4 µg/mL (≈ 9.41 µM) | MIC (Bacteriodes fragilis; Culture # 1756, Wilkins-Chalgren agar, 37° C., 48 hours, read-out: MIC): 1 µg/mL (≈ 2.35 µM) | MIC (Bacteriodes fragilis; Culture # 1757, read-out: MIC): 1 µg/mL (≈ 2.35 µM) | MIC (Bacteriodes fragilis; Culture # 1758, read-out: MIC): 0.5 µg/mL (≈ 1.18 µM) | MIC (Bacteriodes fragilis; Culture # 1999, read-out: MIC): 1 µg/mL (≈ 2.35 µM) | MIC (B. vulgatus; Culture # 2481): 0.03 µg/mL (≈ 0.0706 µM) | MIC (B. vulgatus; Phocaeicola vulgatus, 20 h, Culture # 1762, read-out: MIC): 0.03 µg/mL (≈ 0.0706 µM) | MIC (P. species): 0.06 µg/mL (≈ 0.141 µM) | MIC (B. thetaiotaomicron; [3]): 4 µg/mL (≈ 9.41 µM) | MIC (B. thetaiotaomicron; Culture # 1765): 4 µg/mL (≈ 9.41 µM) | MIC (B. thetaiotaomicron; Culture # 1766): 4 µg/mL (≈ 9.41 µM) | MIC (B. bivius; Culture # 2483, read-out: MIC): 0.015 µg/mL (≈ 0.0353 µM) | MIC (Clostridium perfringens; Culture # 1771): 0.06 µg/mL (≈ 0.141 µM) | MIC (Clostridium perfringens; Culture # 1772): 0.5 µg/mL (≈ 1.18 µM) | MIC (Clostridium perfringens; Culture # 1773): 0.06 µg/mL (≈ 0.141 µM) | MIC ([1]; Culture # 1777, read-out: MIC): 0.03 µg/mL (≈ 0.0706 µM) | MIC (B. loescheii; Culture # 1767, read-out: MIC): 0.06 µg/mL (≈ 0.141 µM) | MIC (P. magnus; Culture # 1778, read-out: MIC): 1 µg/mL (≈ 2.35 µM) | MIC (Fusobacterium species; Culture # 1770, read-out: MIC): 0.12 µg/mL (≈ 0.282 µM) | MIC (Veillonella parvula; Culture # 2479, read-out: MIC): 0.06 µg/mL (≈ 0.141 µM)

CN[C@H](CC(C)C)C(=O)N[C@H]1C(=O)N[C@@H](CC(N)=O)C(=O)N[C@H]2C(=O)N[C@H]3C(=O)N[C@H](C(=O)N[C@H](C(=O)O)c4cc(O)cc(O)c4-c4cc3ccc4O)[C@H](O)c3ccc(c(Cl)c3)Oc3cc2cc(c3O[C@@H]2O[C@H](CO)[C@@H](O)[C@H](O)[C@H]2O[C@H]2C[C@](C)(N)[C@H](O)[C@H](C)O2)Oc2ccc(cc2Cl)[C@H]1O [Vancomycin]
MIC (Propionibacterium acnes): 0.5 µg/mL (≈ 0.345 µM) | MIC (Fusobacterium nucleatum): > 64 µg/mL | MIC (P. anaerobius): 0.5 µg/mL (≈ 0.345 µM) | rapidity of mortality (Clostridium difficile; 1 mg/kg versus 10 or 20 mg/kg): more rapid mortality than hamsters treated at 10 or 20 mg/kg | % Mortality (Clostridium difficile; 1 mg/kg/day): 100% | % Mortality (Clostridium difficile; 10 mg/kg/day): 100% | % Mortality (Clostridium difficile; 20 mg/kg/day, orally): 100% | MIC [2]: > 200 µg/mL | MIC (Klebsiella pneumoniae): > 200 µg/mL | MIC (Staphylococcus aureus; Culture # 1662, brain heart infusion agar, 37° C.): 3.1 µg/mL (≈ 2.14 µM) | MIC (Staphylococcus aureus; Culture # 1664): 1.56 µg/mL (≈ 1.08 µM) | MIC (Staphylococcus aureus; Culture # 1690): 1.56 µg/mL (≈ 1.08 µM) | MIC (Staphylococcus aureus; Culture # 2124): 3.1 µg/mL (≈ 2.14 µM) | MIC (Staphylococcus aureus; Culture # 2130): 3.1 µg/mL (≈ 2.14 µM) | MIC (Staphylococcus aureus; Culture # 2498): 3.1 µg/mL (≈ 2.14 µM) | MIC (Staphylococcus aureus; cipro res., Culture # 3384): 1.56 µg/mL (≈ 1.08 µM) | MIC (B. disiens): 32 µg/mL (≈ 22.1 µM) | MIC (C. ramosum): 8 µg/mL (≈ 5.52 µM) | MIC (C. difficile; Culture # 1496): 0.5 µg/mL (≈ 0.345 µM) | MIC (C. difficile; Culture # 1497): 0.5 µg/mL (≈ 0.345 µM) | MIC (C. difficile; Culture # 1774): 2 µg/mL (≈ 1.38 µM) | MIC (C. difficile; Culture # 2025): 0.5 µg/mL (≈ 0.345 µM) | MIC (C. difficile; Culture # 2480): > 64 µg/mL | MIC (C. difficile; Culture # 2528): 1 µg/mL (≈ 0.69 µM) | MIC (C. difficile; Culture # 2529): 1 µg/mL (≈ 0.69 µM) | MIC (Bacteriodes fragilis; Culture # 1756, Wilkins-Chalgren agar, 37° C., 48 hours): 32 µg/mL (≈ 22.1 µM) | MIC (Bacteriodes fragilis; Culture # 1757): 32 µg/mL (≈ 22.1 µM) | MIC (Bacteriodes fragilis; Culture # 1758): 16 µg/mL (≈ 11 µM) | MIC (B. vulgatus; Phocaeicola vulgatus, 20 h, Culture # 2481): 64 µg/mL (≈ 44.2 µM) | MIC (B. vulgatus; Phocaeicola vulgatus, 20 h, Culture # 1762): 32 µg/mL (≈ 22.1 µM) | MIC (P. cepacia): > 200 µg/mL | MIC (Enterobacter aerogenes): > 200 µg/mL | MIC (Pseudomonas aeruginosa; Culture # 1680): > 200 µg/mL | MIC (Pseudomonas aeruginosa; Culture # 1681): > 200 µg/mL | MIC (Pseudomonas aeruginosa; Culture # 1682): > 200 µg/mL | MIC (Pseudomonas aeruginosa; Pseudomonas aeruginosa, 20 h): > 200 µg/mL | MIC (Pseudomonas aeruginosa; cipro R, Culture # 1919): > 200 µg/mL | MIC (Pseudomonas aeruginosa; cipro R, Culture # 1920): > 200 µg/mL | MIC (Micrococcus luteus; Culture # 2493): 0.78 µg/mL (≈ 0.538 µM) | MIC (Micrococcus luteus; Culture # 2517): 3.1 µg/mL (≈ 2.14 µM) | MIC (S. epidermidis): 3.1 µg/mL (≈ 2.14 µM) | MIC (P. species): 1 µg/mL (≈ 0.69 µM) | MIC (B. thetaiotaomicron; [3]): > 64 µg/mL | MIC (B. thetaiotaomicron; Culture # 1765): > 64 µg/mL | MIC (B. thetaiotaomicron; Culture # 1766): > 64 µg/mL | MIC (B. bivius): 32 µg/mL (≈ 22.1 µM) | MIC (Clostridium perfringens; Culture # 1771): > 64 µg/mL | MIC (Clostridium perfringens; Culture # 1772): 0.5 µg/mL (≈ 0.345 µM) | MIC (Clostridium perfringens; Culture # 1773): 1 µg/mL (≈ 0.69 µM) | MIC (E. coli; DC-2, Culture # 1674): > 200 µg/mL | MIC (E. coli; H560, Culture # 1675): > 200 µg/mL | MIC (E. coli; Juhl, Culture # 1673): > 200 µg/mL | MIC (E. coli; KNK437, Culture # 1676): > 200 µg/mL | MIC (E. coli; SS, Culture # 2489): 50 µg/mL (≈ 34.5 µM) | MIC (Streptococcus agalactiae): 3.1 µg/mL (≈ 2.14 µM) | MIC [1]: 1 µg/mL (≈ 0.69 µM) | MIC (S. pyogenes; Culture # 1671): 3.1 µg/mL (≈ 2.14 µM) | MIC (S. pyogenes; const., Culture # 1672): 0.78 µg/mL (≈ 0.538 µM) | MIC (S. pyogenes; inducible, Culture # 2548): 0.78 µg/mL (≈ 0.538 µM) | MIC (Providencia stuartii): > 200 µg/mL | MIC (B. loescheii): 32 µg/mL (≈ 22.1 µM) | MIC (Enterococcus faecium): 3.1 µg/mL (≈ 2.14 µM) | MIC (Streptococcus bovis): 0.78 µg/mL (≈ 0.538 µM) | MIC (P. magnus): 0.5 µg/mL (≈ 0.345 µM) | MIC (Fusobacterium species): > 64 µg/mL | MIC (Veillonella parvula): > 64 µg/mL
